Experimental data taken from paper PMC8524809 (Molecular Therapy, 2021).

Tests used:
[1] = cited from earlier work
[2] = in vitro; details: human

For CC(C)(O)c1ccccc1CC[C@@H](SCC1(CC(=O)O)CC1)c1cccc(/C=C/c2ccc3ccc(Cl)cc3n2)c1 [montelukast], the “Side effects / tolerability” value ([1]; all doses 10 mg/day to 200 mg/day, ref 23 (Altman et al.)) is listed as “no significant clinical or laboratory side effects”, the Toxicity tolerance ([1]; high doses (i.e., 200 mg/day)) is listed as “toxicity tolerance is high” and the viability [2] is listed as 86 to 90%.
